This is an account of results in patent US5935955A, “Pharmaceutical piperazine compounds” (Xenova Limited, priority 1994, dated 1999).

The structures appear in SMILES notation. Counter-ions that a name gives are not always drawn. Like-named read-outs stand apart in the source and are kept apart here.

Assay [1] concerns AR 1.0 cells. The assay can be described thus: Drug accumulation assay (tritiated daunorubicin). Type of assay: cell-based. The following applies: Mus musculus; for Emax: 1 h, read-out: Max accumulation; for IC50: daunorubicin 2 μM, 1 hr at 37° C., read-out: IC50 accumulation. On the procedure: AR 1.0 cells were seeded into 96 well opaque culture plates (Canberra Packard). The assay medium contained a mixture of tritiated Daunorubicin (DNR), a cytotoxic agent, and unlabelled DNR (0.3 μCi/ml; 2 μM). Compounds of formula I were serially diluted in assay medium over a range of concentrations from 5 nM to 100 μM. The cells were incubated at 37° C. for 1 hr before washing and determination of cell associated radioactivity. Results were expressed as % maximum accumulation where 100% accumulation is that observed in the presence of the known RMA verapamil at 100 μM. Where possible an IC50 was determined.

For assay [2], the system named is AR 1.0 cells. The assay can be described thus: Compound toxicity (proliferation, sulphorhodamine B). Type of assay: cell-based. The settings on record: Mus musculus, 96 h; compound alone; AR 1.0 cells; four day incubation; read-out: Compound toxicity (IC50).
The subject of assay [3] is AR 1.0 cells. The assay can be described thus: Potentiation of doxorubicin toxicity (fixed doxorubicin 0.86 μM, proliferation, sulphorhodamine B). The settings on record: doxorubicin alone, 0.86 μM, AR 1.0 cells. Format: cell-based, mouse. The source says: Compounds of formula (I) were examined for their ability to potentiate the toxicity of doxorubicin in AR 1.0 cells.

Setting [4] is: % maximum accumulation, 100% = verapamil at 100 μM, compound 5 nM to 100 μM.

Regarding `CN1CCN(CCNC(=O)c2ccc(/C=c3\[nH]c(=O)/c(=C/c4ccccc4)n(C)c3=O)cc2)CC1` [Compound 9007, N-(2-(4-Methyl-1-piperazinyl)ethyl)-4-((3Z,6Z)-6-benzylidene-1-methyl-2,5-dioxo-3-piperazinylidene)methylbenzamide], the Emax in assay [1] (setting [4]) stood at 30%.

In general, IC50 refers to the concentration at which inhibition is half-maximal. With `CN1CCN(C(=O)c2ccc(/C=c3\[nH]c(=O)/c(=C/c4ccccc4)n(C)c3=O)cc2)CC1` [Compound 9052, 1-(4-((3Z,6Z)-6-Benzylidene-1-methyl-2,5-dioxo-3-piperazinylidene)methylbenzoyl)-4-methylpiperazine, hydrochloride], the half-maximal inhibitory concentration (IC50) in assay [1] amounted to 100 µM.

Take `Cn1c(=O)/c(=C/c2ccc(C(=O)NCCN3CCOCC3)cc2)[nH]c(=O)/c1=C/c1ccccc1` [Compound 9053, N-(2-Morpholinoethyl)-4-((3Z,6Z)-6-benzylidene-1-methyl-2,5-dioxo-3-piperazinylidene)methylbenzamide, hydrochloride]: the figures for the IC50 in assay [1] and in assay [2] were 50 µM and 40 µM, respectively.

In the case of `C=CCNC(=O)c1ccc(/C=c2\[nH]c(=O)/c(=C/c3ccccc3)n(C)c2=O)cc1` [Compound 9070, N-Allyl-4-((3Z,6Z)-6-benzylidene-1-methyl-2,5-dioxo-3-piperazinylidene)methylbenzamide], the IC50 in assay [1] is 5 µM; in assay [2], 40 µM.

Consider `CN(CCNC(=O)c1ccc(/C=c2\[nH]c(=O)/c(=C/c3ccccc3)n(C)c2=O)cc1)C(c1ccccc1)c1ccccc1` [Compound 9076, N-(2-Diphenylmethylmethylaminoethyl)-4-((3Z,6Z)-6-benzylidene-1-methyl-2,5-dioxo-3-piperazinylidene)methylbenzamide, hydrochloride], for which the Emax in assay [1] (setting [4]) is 44%.

In the case of `Cn1c(=O)/c(=C/c2ccc(C(=O)Nc3ccc(CCN4CCc5c([nH]c6ccccc56)C4)cc3)cc2)[nH]c(=O)/c1=C/c1ccccc1` [Compound 9080, N-(4-(2-(1,2,3,4-Tetrahydro-β-carbolin-2-yl)ethyl)phenyl)-4-((3Z,6Z)-6-benzylidene-1-methyl-2,5-dioxo-3-piperazinylidene)methylbenzamide], the Emax in assay [1] was found to be 18%.

Consider `Cn1c(=O)/c(=C/c2ccc(C(=O)Nc3ccc(CN4CCc5c([nH]c6ccccc56)C4)cc3)cc2)[nH]c(=O)/c1=C/c1ccccc1` [Compound 9096, N-(4-(1,2,3,4-Tetrahydro-β-carbolin-2-yl)methylphenyl)-4-((3Z,6Z)-6-benzylidene-1-methyl-2,5-dioxo-3-piperazinylidene)methylbenzamide], for which, in assay [1], the Emax came to 20%.

With `Cn1c(=O)/c(=C/c2ccc(C(=O)Nc3ccc(CCN4CCN(c5ccccc5)CC4)cc3)cc2)[nH]c(=O)/c1=C/c1ccccc1` [Compound 9103, N-(4-(2-(4-Phenyl-1-piperazinyl)ethyl)phenyl)-4-((3Z,6Z)-6-benzylidene-1-methyl-2,5-dioxo-3-piperazinylidene)methylbenzamide], the Emax in assay [1] (setting [4]) was found to be 20%.

Take `COc1cc2c(cc1OC)CN(CCCc1ccc(NC(=O)c3cccc(/C=c4\[nH]c(=O)/c(=C/c5ccccc5)n(C)c4=O)c3)cc1)CC2` [Compound 9161, N-(4-(3-(6,7-Dimethoxy-1,2,3,4-tetrahydro-2-isoquinolyl)propyl)phenyl)-3-((3Z,6Z)-6-benzylidene-1-methyl-2,5-dioxo-3-piperazinylidene)methylbenzamide,hydrochloride]: the Emax in assay [1] (setting [4]) was found to be 20%.

`COc1cccc2c1C(=O)c1c(O)c3c(c(O)c1C2=O)C[C@@](O)(C(=O)CO)C[C@@H]3O[C@H]1C[C@H](N)[C@H](O)[C@H](C)O1` [doxorubicin, reference compound]: the “Toxicity of doxorubicin alone” value in assay [3] is “non-toxic”.
